≈ marks a conversion by molar mass, not a printed value.
Columns and labels:
Klebsiella pneumoniae = test: Antimicrobial activity against Klebsiella pneumoniae 13882 by CLSI method; format: functional; conditions: Klebsiella pneumoniae, 13882; read-out: MIC
Bacillus anthracis = test: Antimicrobial activity against Bacillus anthracis Sterne by CLSI method; format: functional; conditions: Bacillus anthracis, Sterne; read-out: MIC
Staphylococcus aureus = test: Antimicrobial activity against methicillin-resistant Staphylococcus aureus 1094 by CLSI method; format: functional; conditions: Staphylococcus aureus, 1094; read-out: MIC
Enterococcus faecalis = test: Antimicrobial activity against vancomycin-resistant Enterococcus faecalis ATCC 51575 by CLSI method; format: functional; conditions: Enterococcus faecalis, ATCC 51575; read-out: MIC
Escherichia coli [1] = test: Antimicrobial activity against TolC+ Escherichia coli 700 by CLSI method; format: functional; conditions: Escherichia coli, 700; read-out: MIC
Pseudomonas aeruginosa [2] = test: Antimicrobial activity against mexAB-oprM deficient Pseudomonas aeruginosa PAO1 harboring by CLSI method; format: functional
Bacillus subtilis = test: Antimicrobial activity against Bacillus subtilis BD54 by CLSI method; format: functional; conditions: Bacillus subtilis, BD54; read-out: MIC
Pseudomonas aeruginosa [3] = test: Antimicrobial activity against Pseudomonas aeruginosa PAO1 by CLSI method; format: functional; conditions: Pseudomonas aeruginosa, PAO1; read-out: MIC
[4] = Cytotoxicity against human HeLa cells by MTS assay; format: cell-based; conditions: HeLa cells
Escherichia coli [5] = test: Antimicrobial activity against TolC-deficient Escherichia coli by CLSI method; format: functional; conditions: Escherichia coli; read-out: MIC

Row | SMILES | MIC (Klebsiella pneumoniae) [µg/mL] | MIC (Bacillus anthracis) [µg/mL] | MIC (Staphylococcus aureus) [µg/mL] | MIC (Enterococcus faecalis) [µg/mL] | MIC (Escherichia coli [1]) [µg/mL] | MIC (Pseudomonas aeruginosa [2]) [µg/mL] | MIC (Bacillus subtilis) [µg/mL] | MIC (Pseudomonas aeruginosa [3]) [µg/mL] | CC50 [4] [µg/mL] | MIC (Escherichia coli [5]) [µg/mL]
1 | c1cc2cc(-c3ccc(-c4nc5ccc(C6=NCCCN6)cc5[nH]4)cc3)[nH]c2cc1C1=NCCCN1 | 5 (≈ 10.6 µM) | 0.31 (≈ 0.655 µM) | 0.31 (≈ 0.655 µM) | 0.31 (≈ 0.655 µM) | 2.5 (≈ 5.28 µM) | 2.5 (≈ 5.28 µM) | 0.08 (≈ 0.169 µM) | 2.5 (≈ 5.28 µM) | 27.6 (≈ 58.3 µM) | 0.31 (≈ 0.655 µM)
2 | c1cc2cc(-c3ccc(-c4cn5cc(C6=NCCN6)ccc5n4)cc3)[nH]c2cc1C1=NCCN1 | 80 (≈ 180 µM) | 40 (≈ 89.8 µM) | 80 (≈ 180 µM) | 20 (≈ 44.9 µM) | 40 (≈ 89.8 µM) |  | 0.31 (≈ 0.696 µM) | > 80 |  | 0.63 (≈ 1.41 µM)
3 | c1cc2cc(-c3ccc(-c4cn5ccc(C6=NCCN6)cc5n4)cc3)[nH]c2cc1C1=NCCN1 | 5 (≈ 11.2 µM) | > 80 | > 80 | > 80 | 2.5 (≈ 5.61 µM) | > 80 | 2.5 (≈ 5.61 µM) | 40 (≈ 89.8 µM) | 2.5 (≈ 5.61 µM) | 0.31 (≈ 0.696 µM)
4 | c1cc2cc(-c3ccc(-c4cc5ccc(C6=NCCCN6)cc5s4)cc3)[nH]c2cc1C1=NCCCN1 | 1.25 (≈ 2.55 µM) | 0.16 (≈ 0.327 µM) | 0.31 (≈ 0.633 µM) | 0.31 (≈ 0.633 µM) | 0.63 (≈ 1.29 µM) | 10 (≈ 20.4 µM) | 0.1 (≈ 0.204 µM) | 10 (≈ 20.4 µM) | 5.9 (≈ 12 µM) | 0.31 (≈ 0.633 µM)
5 | c1cc2oc(-c3ccc(-c4cc5ccc(C6=NCCCN6)cc5[nH]4)cc3)cc2cc1C1=NCCCN1 | 1.25 (≈ 2.64 µM) | 0.08 (≈ 0.169 µM) | 0.31 (≈ 0.655 µM) | 0.08 (≈ 0.169 µM) | 0.63 (≈ 1.33 µM) | 2.5 (≈ 5.28 µM) | 0.08 (≈ 0.169 µM) | 2.5 (≈ 5.28 µM) | 8.5 (≈ 17.9 µM) | 0.39 (≈ 0.824 µM)
6 | c1cc2cc(-c3ccc(-c4cc5ccc(C6=NCCN6)cc5o4)cc3)[nH]c2cc1C1=NCCN1 | 0.94 (≈ 2.11 µM) | 0.31 (≈ 0.696 µM) | 0.16 (≈ 0.359 µM) | 0.16 (≈ 0.359 µM) | 0.47 (≈ 1.05 µM) | 15 (≈ 33.7 µM) | 0.16 (≈ 0.359 µM) | 10 (≈ 22.4 µM) | 9.7 (≈ 21.8 µM) | 0.24 (≈ 0.539 µM)
7 | c1cc2cc(-c3ccc(-c4cc5ccc(C6=NCCCN6)cc5o4)cc3)[nH]c2cc1C1=NCCCN1 | 0.55 (≈ 1.16 µM) | 5 (≈ 10.6 µM) | 0.1 (≈ 0.211 µM) | 0.39 (≈ 0.824 µM) | 0.63 (≈ 1.33 µM) | 0.47 (≈ 0.992 µM) | 0.14 (≈ 0.296 µM) | 0.63 (≈ 1.33 µM) | 26 (≈ 54.9 µM) | 0.16 (≈ 0.338 µM)
8 | OC1CN=C(c2ccc3cc(-c4ccc(-c5cc6ccc(C7=NCC(O)CN7)cc6o5)cc4)[nH]c3c2)NC1 (stereo not drawn) | 1.09 (≈ 2.16 µM) | 0.55 (≈ 1.09 µM) | 0.31 (≈ 0.613 µM) | 0.31 (≈ 0.613 µM) | 2.5 (≈ 4.94 µM) | 15 (≈ 29.7 µM) | 0.08 (≈ 0.158 µM) | 6.3 (≈ 12.5 µM) | 11.9 (≈ 23.5 µM) | 0.16 (≈ 0.316 µM)
9 | COC1CN=C(c2ccc3cc(-c4ccc(-c5cc6ccc(C7=NCC(OC)CN7)cc6o5)cc4)[nH]c3c2)NC1 (stereo not drawn) | 1.25 (≈ 2.34 µM) | 0.31 (≈ 0.581 µM) | 0.31 (≈ 0.581 µM) | 0.63 (≈ 1.18 µM) | 2.5 (≈ 4.68 µM) |  | 0.08 (≈ 0.15 µM) | > 80 | 6 (≈ 11.2 µM) | 0.24 (≈ 0.45 µM)
10 | FC1CN=C(c2ccc3cc(-c4ccc(-c5cc6ccc(C7=NCC(F)CN7)cc6o5)cc4)[nH]c3c2)NC1 (stereo not drawn) | 0.63 (≈ 1.24 µM) | 0.31 (≈ 0.608 µM) | 0.31 (≈ 0.608 µM) | 0.31 (≈ 0.608 µM) | 1.25 (≈ 2.45 µM) | 2.5 (≈ 4.91 µM) | 0.16 (≈ 0.314 µM) | 5 (≈ 9.81 µM) | 47.5 (≈ 93.2 µM) | 0.27 (≈ 0.53 µM)
11 | c1cc2cc(-c3ccc(-c4cnc(N5CCOCC5)nc4)cc3)[nH]c2cc1C1=NCCCN1 | 70 (≈ 160 µM) | 0.55 (≈ 1.25 µM) | 7.5 (≈ 17.1 µM) | 3.75 (≈ 8.55 µM) | 35 (≈ 79.8 µM) |  | 0.78 (≈ 1.78 µM) | > 80 | 2 (≈ 4.56 µM) | 0.63 (≈ 1.44 µM)
12 | CC1CNC(c2ccc3cc(-c4ccc(-c5cnc(N6CCOCC6)nc5)cc4)[nH]c3c2)=N1 (stereo not drawn) | > 80 | 22.5 (≈ 51.3 µM) | > 80 | > 80 | > 80 |  | 10 (≈ 22.8 µM) | > 80 | 1.3 (≈ 2.96 µM) | 60 (≈ 137 µM)
13 | c1cc2cc(-c3ccc(-c4cnc(N5CCCC5)nc4)cc3)[nH]c2cc1C1=NCCCN1 | > 80 | 0.63 (≈ 1.49 µM) | 2.5 (≈ 5.92 µM) | 5 (≈ 11.8 µM) | > 80 |  | 0.63 (≈ 1.49 µM) | > 80 | 5.7 (≈ 13.5 µM) | 0.63 (≈ 1.49 µM)
14 | CC1CNC(c2ccc3cc(-c4ccc(-c5cnc(N6CCCC6)nc5)cc4)[nH]c3c2)=N1 (stereo not drawn) | > 80 | 40 (≈ 94.7 µM) | 40 (≈ 94.7 µM) | > 80 | > 80 |  | 40 (≈ 94.7 µM) | > 80 | 1.1 (≈ 2.6 µM) | 40 (≈ 94.7 µM)

— ChEMBL document CHEMBL3352668, “Synthesis and antibacterial evaluation of new, unsymmetrical triaryl bisamidine compounds” (Bioorg Med Chem Lett, 2014)
